We go through two substances from paper PMC11915509, “Small molecule inhibitors of hnRNPA2B1–RNA interactions reveal a predictable sorting of RNA subsets into extracellular vesicles” (Nucleic Acids Research, 2025).

The subject of one data set is hnRNPA2B1 isoform. Further details: method as in PMID 29379020. To be noted: hnRNPA2B1 isoform ref 45; read-out: observed Kd; cited from earlier work.
The target in another data set is T1, GST-hnRNPA2B1 (Homo sapiens, UniProt P22626).
T1 construct: purified a human full-length, GST-tagged protein expressed in Escherichia coli cells; made in house; host or cells: E. coli BL21 (DE3)
Briefly: AlphaScreen binding kinetics with EXOmotif probe. The note with it: 30 nM GST-hnRNPA2B1, time frame of 2 h. Here is the method: AlphaScreen assay was used to study the interaction between hnRNA2B1 and different biotinylated single-stranded RNA probes: EXO RNA (5′-BTeg- […]), RNA 114 (5′- BTeg-[…]), and RNA 276 (5′-B-Teg- […]). The assays were performed in OptiPlate-384-well plates (PerkinElmer, 6007299) in 20 μl final volume. The ligands were diluted in AlphaBuffer [25 mM HEPES, pH 7.4, 100 mM NaCl, 0.01% bovine serum albumin (BSA)] and tested using AlphaScreen GST Detection Kit (PerkinElmer, 6760603C). For the assay optimization, different concentrations of the RNA probes (0–100 nM) were incubated with different concentrations of GST-hnRNPA2B1 (0–60 nM) in the presence of streptavidin Donor beads and anti-GST-Acceptor beads (PerkinElmer) (20 μg/ml final concentration). […]
Figure 2. […] Dissociation constants (Kd) were determined from nonlinear regression one-site binding model in GraphPad Prism®, version 9.0. […] Association (Kon) and dissociation (Koff) rate constants and equilibrium dissociation constants (koff/kon) were determined using nonlinear regression association kinetic model of multiple ligand concentration in GraphPad Prism®, version 9.0. […] Densitometric quantification of protein fractions were normalized to the input. […] (G) Distribution of positive (EXOmotif) and negative (ARE) protein–RNA probe interactions calculated in the primary drug screening. […]
In general terms: Bead proximity is the source of the signal in Alpha formats.

T1 sequence (P22626 whole entry): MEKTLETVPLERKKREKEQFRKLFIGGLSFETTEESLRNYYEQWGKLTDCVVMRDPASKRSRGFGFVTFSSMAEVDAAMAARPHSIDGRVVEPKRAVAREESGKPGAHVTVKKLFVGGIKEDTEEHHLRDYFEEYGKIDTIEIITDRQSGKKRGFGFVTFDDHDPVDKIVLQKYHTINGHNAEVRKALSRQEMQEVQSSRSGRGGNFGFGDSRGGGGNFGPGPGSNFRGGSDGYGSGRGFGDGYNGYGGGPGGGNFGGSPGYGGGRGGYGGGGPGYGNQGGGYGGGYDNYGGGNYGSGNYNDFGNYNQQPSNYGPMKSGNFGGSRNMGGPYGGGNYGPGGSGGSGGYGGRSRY

Regarding RNA 114: RNA oligo 5′-AAGGACUAGC, the Kd with hnRNPA2B1 isoform was 114 nM.
Take “EXOmotif: single-stranded RNA oligo 5′-GGGGAGGUUAGGGAGGAGGGGGGUAGGCGCC (RNA, backbone not given here)”: the “association rate constant kon” value with GST-hnRNPA2B1 is 523 664 M^−1min^−1.

Usually Kd stands for the equilibrium constant for the complex coming apart.
